Data set [1] concerns Salmonella enterica subsp. enterica serovar Paratyphi C (ATCC® BAA1714™). In words: Inhibition of biofilm formation with different capsaicyn compounds, crystal violet staining assay (Example 6). The format is cell-based. The conditions noted are these: for Biofilm (OD 595 nm): 24 hr; for interference with the biofilm readings, in words: 125 μg/ml dose. As to the method:
Biofilm formation was quantified with modifications using the method described by Stepanovic et al. (Journal of Microbiological Methods, 2000, 40(2), 175-19) with modifications. Using a 96-well microplate duplicate the test solutions were filled at the above selected doses. Cultures were grown for 18 hr in LB at 30° C. and adjusted to OD 0.1 at 600 nm. 20 μL of the culture were added into each well and the remainder of the volume to 200 μL per well was filled with LB. Unused external wells were filled with 200 μL of sterile water to prevent evaporation.
After 24 hr of incubation, supernatants were discarded, and the wells were washed three times with 200 μL of sterile phosphate buffered saline (PBS). Bacteria adhered to the wells were fixed with 200 μL of methanol for 15 min, the methanol was discarded, and the plates dried at 25° C.
Each well was stained with 200 μL of 0.3% (w/v) crystal violet solution for 5 min at 25° C. Crystal violet excess was pipetted out, and the wells were rinsed five times with sterile PBS. 200 μL of 33% (v/v) glacial acetic acid were added to the wells for 30 min to solubilise the dye adhered to the cell walls. Optical density (OD) was measured at 595 nm using a microplate spectrophotometer as a direct measure of biofilm formation. P. aeruginosa in 3% DMSO will be used as the negative control.
A stock solution of 500 μg of phenylcapsaicin, capsaicin, compound a, compound b, compound c, was prepared by dissolving 500 μg in 100 μl of ethanol and 900 μl of sterile water. The stock solutions were sequentially diluted with quadruple volumes of solvent (10% aqueous ethanol solution) to yield 125/31.25 (32)/7.81 (8)/1.95 (2) μg/ml test solutions.
ATCC® BAA1714™ was used to determine the biofilm inhibition activity. Inducer N-hexanoyl homoserine lactone (C6-HSL) was purchased from Sigma-Aldrich. ATCC® BAA1714™ was cultivated in Luria-Bertani (LB) medium (LB, 5 g yeast extract, 10 g tryptone, 5 g NaCl, 1 L water) at 37° C. overnight under aerobic conditions.
Crystal violet staining assay was performed as in Experiment 3, using ATCC® BAA1714™ in 3% DMSO as the control.

For data set [2] the following is noted: Rage Paulsen et al., Toxicology Research and Application 2018; cited from earlier work.

The structures appear in SMILES notation. “Also recorded” adds a separate entry of the source.

On to `COc1cc(CNC(=O)CCCC/C=C/C(C)C)ccc1O` [Capsaicin, (E)-N-(4-hydroxy-3-methoxybenzyl)-8-methylnon-6-enamide, reference compound], for which the “Biofilm (OD 595 nm)” value was found to be 8.2 OD 595 nm in data set [1] (2 μg/mL, 30° C.); 8.6 OD 595 nm in data set [1] (8 μg/mL, 30° C.); 8.2 OD 595 nm in data set [1] (32 μg/mL, 30° C.). Also, the “interference with the biofilm readings, in words” value in data set [1] is given as “antibacterial interference”. Besides, the “biofilm formation inhibition activity, in words” value in data set [1] (any dose tested (125, 32, 8, 2 μg/ml)) is “did not show reduction biofilm formation”.
For `COc1cc(CNC(=O)CCCCC#Cc2ccccc2)ccc1O` [Phenylcapsaicin, N-[(4-hydroxy-3-methoxyphenyl)methyl]-7-phenylhept-6-ynamide], the “Biofilm (OD 595 nm)” value in data set [1] (2 μg/mL, 30° C.) is listed as 2.5 OD 595 nm; in data set [1] (8 μg/mL, 30° C.), 2.8 OD 595 nm; in data set [1] (32 μg/mL, 30° C.) it was 3.4 OD 595 nm. Besides, the “interference with the biofilm readings, in words” value in data set [1] is listed as “antibacterial interference”. In data set [1] (32, 8 and 2 μg/ml, 30° C.), the “biofilm formed (CVSA), in words” value is reported as “significantly reduced; also recorded: good inhibitor of biofilm formation”. Also, in data set [2], the “safety with regards to gene mutations and chromosomal damage” value is listed as “safe”. Besides, in data set [2], the systemic toxicity result is recorded as “low systemic toxicity”.

Source of the values: patent US20240009150A1, “CAPSAICYNS IN THE TREATMENT OF LEAKY GUT” (AXICHEM AB [SE]/[SE], priority 2020, published 2024).
